Paper PMC10257182, “Discovery of senolytics using machine learning” (Nature Communications, 2023)
Like-named read-outs stand apart in the source and are kept apart here.

Columns and labels:
Assay type in all cases: cell-based, human
[1] = system: senescent IMR90 ER:RAS cells (4-OHT-induced); assay: Nuclei count (Hoechst, high content imaging) senolytic assay, oncogene-induced senescence (OIS) model, senescent cells; details: Homo sapiens; for viability at 10 µM: log (dose) [M] -5, 72 h; for viability at 0.04677 µM: log (dose) [M] -7.33, 72 h
Description: To test for senolytic activity, we compared the effect of each compound on the total cell number (automated high content image-based analysis of total number of nuclei per well) in non-senescent and senescent IMR90 ER:RAS cultures treated with the top hits from the computational screen (Figs. 2e and 3a–d and Supplementary Fig. 4a–c). The drop in cell number compared to untreated controls is indicated by the nuclei count and reflects cell death[13],[15]. As positive control, we employed ouabain, a cardiac glycoside with well characterised senolytic activity.
(§1) We performed experimental validation of the compounds with z-score > 8 (Fig. 2e). […] We employed two cellular models of senescence: one of OIS and a second one of TIS. For the OIS case, we utilised IMR90 ER:RAS cells with 4-OHT at 100 nM. […] For the TIS model, we used A549 cells with etoposide at 100 μM. The exposure of the cells to etoposide lasted 48 h, after which period the cells were cultivated for a further three days with normal media.
(§2) IMR90 (CCL-186) human foetal lung fibroblasts and A549 (CCL-185) human lung adenocarcinoma cells were obtained from the American Type Culture Collection (ATCC, Manassas, VA). The cell lines were confirmed to be mycoplasma negative (Lonza MycoAlert, cat #LT07-118). IMR90 ER:RAS is a derivative of IMR90 cells expressing a switchable version of oncogenic H-Ras[84]. IMR90 ER:RAS and A549 cells were maintained in Dulbecco’s Modified Eagle Medium (DMEM, ThermoFisher) supplemented with foetal bovine serum (10%), L-glutamine (2 mM, ThermoFisher), and antibiotic-antimycotic solution (1%, ThermoFisher) and incubated under standard tissue culture conditions (37 °C and 5% CO2). For induction of the senescent phenotype, IMR90-ER:RAS cells were cultured in hydroxytamoxifen (4-OHT) (Sigma) added media at 100 nM final concentration. IMR90 were kept in culture for over 27 passages for replicative senescence. Cells were tested for mycoplasma on a regular basis.
(§3) Cells were seeded (50 μL per well) into 384-well plates (IMR90 ER:RAS cells in Nunc Optical Bottom Polybase Microplates [#142761, Thermo Scientific, Rochester, NY] and A549 cells in CELLSTAR Cell Culture Microplates [#781091, Greiner Bio-One, Kremsmünster, Austria]). Cells were incubated under standard tissue culture conditions for 24 h before the addition of compounds. Passage 14 IMR90 ER:RAS cells were seeded at 1300 cells per well in the control condition, and at 1600 cells per well in the senescent case. Passage 34 A549 cells were seeded at 7000 cells per well in the control condition, and at 10,000 cells per well in the senescent case.
(§4) Dose response plates were prepared with a DMSO control and a 10-point […] concentration range, and added to the compounds using a D300e digital dispenser (Tecan Trading AG, Switzerland) at a final concentration of between 10 μM and 10 nM. Every screened condition was carried out in triplicate. After 72 h of incubation with exposure to the compounds, cells were fixed by the addition of an equal volume of formaldehyde (8%, 50 μL; #BP531-500, Fisher Bioreagents, Fisher Scientific, Loughborough, Leicestershire) to the existing media, incubated at room temperature (30 min), and washed three times in phosphate-buffered saline (PBS). Cells were then permeabilised in Triton-X100 (0.1%, 50 μL) and incubated at room temperature (30 min) followed by three more washes with PBS.
(§5) Cells were stained with Hoechst 33342 for nuclei count (excitation/emission wavelength at 387/447 […], DAPI channel, original concentration at 10 mg/ml, final concentration at 2 μg/ml; H1399, Molecular Probes, Eugene, OR). The staining solution was prepared in bovine serum albumin solution (10%). The staining solution was added to each well (30 μL) and incubated in the dark at room temperature (30 min), followed by three washes with PBS and no final aspiration. Plates were foil sealed.

[2] = system: senescent A549 cells (etoposide-induced); assay: Nuclei count senolytic assay, therapy-induced senescence (TIS) model, senescent cells; details: Homo sapiens, A549, Senescent cells, mean, read-out: Mean % Cell Survival; for viability at 10 µM: log (dose) [M] -5; for viability at 4.68 µM: log (dose) [M] -5.33; for viability at 2.19 µM: log (dose) [M] -5.66; for viability at 1 µM: log (dose) [M] -6; for viability at 0.468 µM: log (dose) [M] -6.33; for viability at 0.219 µM: log (dose) [M] -6.66; for viability at 0.1 µM: log (dose) [M] -7; for viability at 0.0468 µM: log (dose) [M] -7.33; for viability at 0.0219 µM: log (dose) [M] -7.66; for viability at 0.01 µM: log (dose) [M] -8
Description: (§6) We performed a second validation of the effectiveness of our machine learning models using a different stressor. We focused on therapy-induced senescence (TIS, Supplementary Fig. 6a), where human epithelial cancerous cells (A549) were induced to become senescent by addition of etoposide. Cells were treated with 100 μM etoposide for 48 h, followed by another three days of exposure to media in standard conditions.
as §1, §2, §3, §4, §5
(§7) Plates were imaged on an ImageXpress micro XLS (Molecular Devices, Eugene, OR) equipped with a robotic plate loader (Scara4, PAA, UK).

[3] = system: non-senescent control A549 cells; assay: Nuclei count senolytic assay, TIS model, non-senescent control cells; details: Homo sapiens, A549, Control cells, mean, read-out: Mean % Cell Survival; for viability at 10 µM: log (dose) [M] -5; for viability at 4.68 µM: log (dose) [M] -5.33; for viability at 2.19 µM: log (dose) [M] -5.66; for viability at 1 µM: log (dose) [M] -6; for viability at 0.468 µM: log (dose) [M] -6.33; for viability at 0.219 µM: log (dose) [M] -6.66; for viability at 0.1 µM: log (dose) [M] -7; for viability at 0.0468 µM: log (dose) [M] -7.33; for viability at 0.0219 µM: log (dose) [M] -7.66; for viability at 0.01 µM: log (dose) [M] -8
Description: as §6, §1, §2, §3, §4, §5, §7

[4] = IMR-90, 72 h, Senescent, mean n=3 (Fig 3C), read-out: Mean % Cell Survival
[5] = IMR-90, 72 h, Senescent, log (dose) [M] -5.33, 72 h, mean n=3 (Fig 3C), read-out: Mean % Cell Survival
[6] = IMR-90, 72 h, Senescent, log (dose) [M] -5.66, 72 h, mean n=3 (Fig 3C), read-out: Mean % Cell Survival
[7] = IMR-90, 72 h, Senescent, log (dose) [M] -6, 72 h, mean n=3 (Fig 3C), read-out: Mean % Cell Survival
[8] = IMR-90, 72 h, Senescent, log (dose) [M] -6.33, 72 h, mean n=3 (Fig 3C), read-out: Mean % Cell Survival
[9] = IMR-90, 72 h, Senescent, log (dose) [M] -6.66, 72 h, mean n=3 (Fig 3C), read-out: Mean % Cell Survival
[10] = IMR-90, 72 h, Senescent, log (dose) [M] -7, 72 h, mean n=3 (Fig 3C), read-out: Mean % Cell Survival
[11] = IMR-90, 72 h, Senescent, log (dose) [M] -7.66, 72 h, mean n=3 (Fig 3C), read-out: Mean % Cell Survival
[12] = IMR-90, 72 h, Senescent, log (dose) [M] -8, 72 h, mean n=3 (Fig 3C), read-out: Mean % Cell Survival

Cc1c(-c2c(F)cc(C(N)=O)c3[nH]c4c(c23)CC[C@H](C(C)(C)O)C4)cccc1-n1c(=O)c2cccc(F)c2n(C)c1=O [BMS 986142]
viability at 10 µM [1, 4]: 97.6%
viability at 4.677 µM [1, 5]: 143%
viability at 2.188 µM [1, 6]: 96.7%
viability at 1 µM [1, 7]: 102%
viability at 0.4677 µM [1, 8]: 101%
viability at 0.2188 µM [1, 9]: 100%
viability at 0.1 µM [1, 10]: 98.6%
viability at 0.04677 µM [1, 4]: 109%
viability at 0.02188 µM [1, 11]: 95.3%
viability at 0.01 µM [1, 12]: 97.5%
viability at 4.677 µM ([1]; IMR-90, Senescent cells, log (dose) [M] -5.33, individual replicates, SUP FIG 4C, read-out: % Cell Survival): 133%
viability at 0.4677 µM ([1]; IMR-90, Senescent cells, log (dose) [M] -6.33, individual replicates, SUP FIG 4C, read-out: % Cell Survival): 103%
viability at 0.2188 µM ([1]; IMR-90, Senescent cells, log (dose) [M] -6.66, individual replicates, SUP FIG 4C, read-out: % Cell Survival): 105%
viability at 0.1 µM ([1]; IMR-90, Senescent cells, log (dose) [M] -7, individual replicates, SUP FIG 4C, read-out: % Cell Survival): 91.6%
viability at 0.02188 µM ([1]; IMR-90, Senescent cells, log (dose) [M] -7.66, individual replicates, SUP FIG 4C, read-out: % Cell Survival): 94.3%
viability at 0.01 µM ([1]; IMR-90, Senescent cells, log (dose) [M] -8, individual replicates, SUP FIG 4C, read-out: % Cell Survival): 90.3%
viability at 0.01 µM ([1]; IMR-90, Senescent, log (dose) [M] -8, read-out: % Cell Survival): 111%
viability at 10 µM [2]: 77.3%
viability at 4.68 µM [2]: 86.4%
viability at 2.19 µM [2]: 85.2%
viability at 1 µM [2]: 92.7%
viability at 0.468 µM [2]: 94.2%
viability at 0.219 µM [2]: 87.5%
viability at 0.1 µM [2]: 100%
viability at 0.0468 µM [2]: 95.4%
viability at 0.0219 µM [2]: 104%
viability at 0.01 µM [2]: 101%
viability at 10 µM [3]: 116%
viability at 4.68 µM [3]: 101%
viability at 2.19 µM [3]: 96.6%
viability at 1 µM [3]: 101%
viability at 0.468 µM [3]: 98%
viability at 0.219 µM [3]: 37.1%
viability at 0.1 µM [3]: 98.9%
viability at 0.0468 µM [3]: 33.5%
viability at 0.0219 µM [3]: 103%
viability at 0.01 µM [3]: 99.7%

O=c1oc2c(O)c(O)cc3c(=O)oc4c(O)c(O)cc1c4c23 [Ellagic acid, ellagic acid]
viability at 10 µM [1, 4]: 109%
viability at 4.677 µM [1, 5]: 104%
viability at 2.188 µM [1, 6]: 113%
viability at 1 µM [1, 7]: 110%
viability at 0.4677 µM [1, 8]: 123%
viability at 0.2188 µM [1, 9]: 122%
viability at 0.1 µM [1, 10]: 117%
viability at 0.04677 µM [1, 4]: 122%
viability at 0.02188 µM [1, 11]: 114%
viability at 0.01 µM [1, 12]: 113%
viability at 2.188 µM ([1]; IMR-90, Senescent cells, log (dose) [M] -5.66, individual replicates, SUP FIG 4C, read-out: % Cell Survival): 108%
viability at 1 µM ([1]; IMR-90, Senescent cells, log (dose) [M] -6, individual replicates, SUP FIG 4C, read-out: % Cell Survival): 117%
viability at 10 µM [2]: 187%
viability at 4.68 µM [2]: 175%
viability at 2.19 µM [2]: 203%
viability at 1 µM [2]: 186%
viability at 0.468 µM [2]: 193%
viability at 0.219 µM [2]: 167%
viability at 0.1 µM [2]: 209%
viability at 0.0468 µM [2]: 241%
viability at 0.0219 µM [2]: 81.3%
viability at 0.01 µM [2]: 84.4%
viability at 10 µM [3]: 90.6%
viability at 4.68 µM [3]: 76.6%
viability at 2.19 µM [3]: 114%
viability at 1 µM [3]: 78.9%
viability at 0.468 µM [3]: 39.9%
viability at 0.219 µM [3]: 77.2%
viability at 0.1 µM [3]: 65.1%
viability at 0.0468 µM [3]: 99%
viability at 0.0219 µM [3]: 94.5%
viability at 0.01 µM [3]: 109%
